Results published in a melting point compilation (Tetko et al.; mined from patent text by program, amines drawn as free bases though some values may be those of a salt).

Structure (SMILES) | melting point
Cc1ccc(-c2ccc3c(c2)C=C(C(=O)Nc2ccc(CO)cc2)CC3)cc1 | 219 to 220 °C
C[Si](C)(C)C1([Si](C)(C)C)c2ccccc2-c2ccccc21 | 110 to 112 °C
O=C(O)C=Cc1cc(OCc2ccccc2)cc(OCc2ccccc2)c1 | 154 to 156 °C
Cc1nc2c(N)nc3c(c2n1CCOCCS(C)(=O)=O)CCCC3 | 173 to 175 °C
CC1(C)CC(NC(=O)c2cc(C(C)(C)C)c(O)c(C(C)(C)C)c2)CC(C)(C)N1 | 256 to 258 °C
O=C(O)CCCC/C=C(\c1ccc(-c2nc(C(=O)N[C@@H]3C[C@H]3c3ccccc3)co2)cc1)c1cccnc1 | 78 to 87 °C
COc1cc(OCc2ccccn2)c(C=O)cc1-c1cccs1 | 93 to 94 °C
COC(=O)CCNc1ccccc1CNC(=O)C1Cc2ccccc2N1S(=O)(=O)c1ccc(-c2ccc(F)cc2OC)cc1 (configuration not stated) | 78 to 80 °C
CNC(=O)N1N=C(c2ccc([N+](=O)[O-])c(C)c2)c2cc3c(cc2CC1C)OCO3 (configuration not stated) | 221 to 229 °C
Cc1c[nH]c(Nc2ccc(C3=NNC(=O)CC3C)cc2)nc1=O (configuration not stated) | 260 to 270 °C
Cc1cc2c(cc1C)C1(CO2)C(=O)N(C(c2ccccc2)c2ccccc2)c2ccccc21 (configuration not stated) | 193 to 195 °C
C=CCNc1c(C(N)=O)cnc2cn[nH]c12 | 254 to 258 °C
CC1(C)COC(c2ccc(F)cc2-c2ccc3c(c2)CCC(Cc2ccccc2)C3O)=N1 (configuration not stated) | 88 to 89 °C
O=C(O)[C@@H](O)Cc1ccc(O)c([N+](=O)[O-])c1 | 111 °C
C=CCOC(=O)CCCS(=O)C1CC(=O)N1CC(=O)NCCCCCCc1ccc(F)cc1 (configuration not stated) | 95 to 96 °C
CC12CC(CCF)C3C4CCC(=O)C=C4CCC3C1CCC2=O (configuration not stated) | 85 °C
CCCC(=O)c1cc2nc(C=O)n(C)c2cc1C | 107 to 108 °C
NS(=O)(=O)c1ccc(-n2nc(CCCNC(=O)NC3CCCCCC3)cc2-c2ccccc2)cc1 | 164 to 170 °C
CC(C)Oc1ccc(CCCOc2cc(CCC(=O)O)n(C3CCCCC3)n2)c(Oc2ncc(C(F)(F)F)cc2Cl)c1 | 114 to 115 °C
N=C(N)Nc1ncc(Cl)c2ccc(C(=O)NCCC(=O)O)cc12 | 235 to 236 °C
CC(C)c1cc(C(=O)Nc2ccc3[nH]c(C(=O)O)cc3c2)oc1C(C)C | 240 to 243 °C
COC(=O)C1=C[C@@H](OC(C)C)[C@H](NC(C)=O)[C@@H](CCO)C1 | 118 to 119 °C
CCNC(c1ccccc1)(c1ccccc1)c1ccccc1 | 75 to 77 °C
O=C(/C=C/c1ccccc1)OCCOC(=O)NC1(C(=O)O)CC1 | 169 to 172 °C
COC(=O)c1cccc2cc(C)n(Cc3ccc(-c4ccccc4-c4nnn[nH]4)cc3)c12 | 180 to 182 °C

Structure (SMILES) | melting point
CCC(C(C)=CC(CNC(=O)Cc1cccnc1)=NO)[N+](=O)[O-] (configuration not stated) | 140 to 141 °C
CCCCCCCCc1ccc(C=CC(=O)CC(=O)OCC)cc1 | 57 °C
Cc1ccc(CNC(=O)c2ccnc(NC(=O)c3ccccc3)c2)cc1 | 135 to 138 °C
CCCCOC(=O)c1c(CSc2nccn2C)nc2cc(OC)c(OC)cc2c1-c1ccc(OC)c(OC)c1 | 131 to 132 °C
CC1(C)C(=O)Oc2cc([N+](=O)[O-])c3ccc(Cn4cncn4)cc3c21 | 150 to 152 °C
CC1(c2ccc(S(C)(=O)=O)cc2)OC=C(Br)C(=O)C1Oc1ccc(F)cc1F (configuration not stated) | 230 °C
O=S(=O)(c1cn(-c2c(Cl)cc(C(F)(F)F)cc2Cl)c(Cl)n1)C(F)(F)F | 182 °C
CN(c1ccc(I)cc1)S(C)(=O)=O | 106 to 107 °C
Cc1ccccc1NS(=O)(=O)c1cc([N+](=O)[O-])ccc1C | 171 to 173 °C
CC1(C(=O)Nc2ccc(-n3nc(C(F)(F)F)cc3C(F)(F)F)cc2)CC1(Cl)Cl (configuration not stated) | 143 to 145 °C
CCCCc1nc2cccc(C(=O)OCOC(=O)C(C)(C)C)c2n1Cc1ccc2nc(-c3ccccc3-c3nnn[nH]3)ncc2c1 | 126 to 128 °C
CCN(CC)Cc1cccc(OCCCNc2nc(N)nn2C)c1 | 68 to 69 °C
O=C=Nc1ccc(N2CCOCC2)cc1 | 221 to 225 °C
CC1(C)CCc2[nH]cc(C(=O)O)c2C1=O | 225 to 228 °C
COCOc1c(OC)cc(C=CC(=O)c2c(OC)cc(OC)c(CC=C(C)C)c2O)cc1OC | 128 to 129 °C
CC(C)Nc1cccnc1N1CCN(C(=O)c2ccc(C(=O)NC(CO)CO)cn2)CC1 | 90 to 93 °C
CCOP(=O)(OCC)C1CNc2ccc(C(F)(F)F)cc2C1 (configuration not stated) | 112 °C
C[C@@H](Nc1nnc(-c2ccccc2)c2ccccc12)C1CCCCC1 | 164 to 167 °C
COc1ccnc(CCc2nc3cc(-c4ccc(S(=O)(=O)N(CCO)CCO)cc4)cnc3[nH]2)c1 | 127 to 128 °C
CCn1nc2c(N)nc3ccccc3c2c1CC1(O)CCOCC1 | 253 to 255 °C
CC(C)(C)c1ccc(N2CCOCC2)c(NC(=O)C(F)(F)F)c1 | 89 to 90 °C
O=C(Nc1cccnn1)N1CCN(c2nccc(-c3c(F)cccc3F)n2)CC1 | 228 to 229 °C
CCN(C)c1nsc(N)c1C#N | 94 to 95 °C
Cc1nc2c([N+](=O)[O-])cc(Br)cc2n1COCc1ccccc1 | 106 to 109 °C
C/C(NC1CCCCCC1)=C(\C#N)C(N)=S | 132 to 134 °C

Structure (SMILES) | melting point
O=C(Nc1ccc(-c2ccc(C(=O)N3CCN4CCC3CC4)o2)cc1)Nc1cccc(C(F)(F)F)c1 | 171 °C
COc1ccc(-c2nnsc2-c2ccccc2)cc1 | 81.5 to 82.5 °C
CN1CCN(c2cccc3ccc(-n4cnc5ccccc54)cc23)CC1 | 148 to 150 °C
ClCCCCCCOc1ccc(C2=C(c3ccccc3)CCCc3cc(OC4CCCCO4)ccc32)cc1 (configuration not stated) | 84 to 86 °C
CNC(=O)NCCn1c(-c2ccc(N3CCOCC3)cc2)csc1=Nc1ccc(F)cc1 | 191 to 194 °C
CCOc1nc(O)cc(CCl)n1 | 159 to 161 °C
Cn1ncc(NCCCN2CCC(c3noc4cc(F)ccc34)CC2)cc1=O | 163 to 165 °C
CC1(C)CC(=O)C(C)(C)c2cc(/C=C/c3ccc(C(=O)O)cc3)c(Cn3cccn3)cc21 | 265 to 266 °C
O=C(NCc1ccc2cc(O)ccc2c1)c1cc(-c2ccc(Cl)cc2)oc1C(F)(F)F | 189 to 191 °C
N#Cc1c(C(F)(F)F)nn(-c2c(Cl)cc(C(F)(F)F)cc2Cl)c1C(F)(F)F | 88 to 92 °C
O=C(O)c1cc2ccc3[nH]ccc3c2[nH]1 | 248 to 250 °C
O=C(c1ccccc1)N1CCC(c2nn(-c3ccccc3)c3cc(F)ccc23)CC1 | 149 to 151 °C
CCOC(=O)c1ncc2[nH]c3ccc(Br)cc3c2c1C | 231 to 232 °C
CC(C)CN(CC(C)C)C(=O)c1c(N)cccc1N | 76 to 77 °C
Nc1cc(C(F)(F)F)cnc1N | 97 to 99 °C
CC(C)CC(NC(=O)OCc1ccccc1)C(=O)NC(Cc1ccc2ccccc2c1)C(=O)CSCc1ccco1 (configuration not stated) | 103 to 104 °C
COC(=O)c1c(OC)cc(C=O)cc1OC | 113 to 114 °C
CS(=O)(=O)Nc1ccccc1OCCCN1CCC(OC(c2ccccc2)c2ccccc2)CC1 | 106 to 107 °C
CC(C)CC(SCc1ccccc1)c1c(O)cc(-c2ccccc2)oc1=O (configuration not stated) | 153 to 155 °C
CS(=O)(=O)CC(=O)c1ccc(NS(C)(=O)=O)c(Oc2ccc(F)cc2F)c1 | 162 to 163 °C
CCCCc1oc2ccc(-c3nc(C)no3)cc2c1C(=O)c1ccc(OCCCBr)cc1 | 85 to 87 °C
Cc1cc([N+](=O)[O-])c(Cl)c([N+](=O)[O-])c1C(=O)O | 189 to 192 °C
COc1ccc(CCCO)cc1OCc1coc(/C=C/c2ccccc2)n1 | 126 to 128 °C
CCCCCCCCCCCCCCOc1ccc(C(=O)OCC)cc1 | 34 to 35 °C
Cn1nc(SCSc2nn(C)c3ccc(Cl)cc3c2=O)c(=O)c2cc(Cl)ccc21 | 352 to 354 °C

Structure (SMILES) | melting point
NC(=O)CSC(c1ccccc1)c1ccccc1 | 104 to 110 °C
COc1cc2ncc(C#N)c(Nc3ccc(Cl)c(C(F)(F)F)c3)c2cc1OC | 265 to 267 °C
CC(C)CN1C(=O)[C@@H](CC(=O)O)N=C(c2ccccc2Cl)c2cc(Cl)ccc21 | 175 to 178 °C
COc1ccc(C2=NN(c3ccc(-c4nnn(Cc5ccccc5)n4)cc3)C(=O)[C@H]3CC=CC[C@@H]23)cc1OC (relative stereo) | 100 to 102 °C
CS(=O)(=O)Nc1ccc(-c2ccc(C(=O)NCCCCN3CCC(c4ccc5c(c4OCCO)CCCC5)CC3)cc2)cc1 | 216 °C
O=C(CC1CCN(CCn2c(=O)[nH]c3ccccc32)CC1)c1ccc(F)cc1 | 181 °C
CC(C)(C)OC(=O)NCc1nc2c(C(F)(F)F)cccc2c(O)c1C(=O)Nc1nccs1 | 238 °C
COc1cc2c(=O)c(C(N)=O)c[nH]c2cc1F | > 300 °C
CC(=O)NCC1CN(c2ccc(N3CCN(c4nnc(C)s4)CC3)c(F)c2)C(=O)O1 (configuration not stated) | 247 to 249 °C
Nc1ncnc2c1ncn2[C@H]1C=C[C@@H](O)C1 (racemic) | 180 °C
Cc1ccc2c(c1)C=Cc1cc(C)ccc1C2c1cn(Cc2ccc(C(=O)Nc3nc(CC(=O)O)cs3)o2)c(=O)[nH]c1=S | 210 °C
CCCCc1nc2c(N)nc(C)c(C)c2n1CCOc1ccccc1 | 130 to 132 °C
C[C@H](N)Cn1ncc2ccc3oc(C(=O)NCC(C)(C)CO)cc3c21 | 103 °C
O=S1(=O)CCSC(Oc2cccc(Cl)c2)=N1 | 170 °C
Nc1nc(N)c2[nH]c(C3OC(CO)C(O)C3O)nc2n1 (configuration not stated) | 234 to 237 °C
O=C1CCC(c2ccccc2)(c2ccccc2)CN1 | 177 to 180 °C
CC(C)OCC1(C(C)(F)F)c2cc(C#N)ccc2Nc2ncccc21 (configuration not stated) | 134 to 135 °C
O=C1C=C(CCCCC#CCCCC#CCO)C(=O)c2ccccc21 | 88 to 89.5 °C
Cc1ccc(C)c(-c2ccc(S(=O)(=O)N3c4ccccc4CC3C(=O)NCCOc3ccc(CC(=O)O)cc3)cc2)c1 (configuration not stated) | 81 to 84 °C
COc1ccc(CN2CCSC2=O)cc1 | 84 to 86 °C
C(=C(\C(=C\c1ccccc1)c1ccccc1)c1ccccc1)/c1ccccc1 | 183 to 184 °C
COc1cc(Nc2nc3ccnc(-c4ccc(S(N)(=O)=O)cc4)c3o2)cc(OC)c1OC | > 280 °C
